Laboratory results as given in US20170008928A1, “NOVEL PEPTIDES AND PEPTIDE DERIVATIVES AND USES THEREOF” (Novo Nordisk A/S, priority 2015, published 2017).
Where two headings read alike, the source gives them in different places. Starred links: 1 amine or outer side, 2 acyl side, 3 side chain; linkers in the order of their positions; H or OH if unused. Non-standard residues stand in square brackets, D forms with d. Residues, ends and D or L forms follow the SMILES beside them. No end group written: not given here. *: point of attachment. Phe(4-CH2SO3H) = N[C@@H](Cc1ccc(CS(=O)(=O)O)cc1)C(=O)O; C20 diacid = O=C(O)CCCCCCCCCCCCCCCCCCC(=O)*; sY = N[C@@H](Cc1ccc(OS(=O)(=O)O)cc1)C(=O)O; C18 diacid = O=C(O)CCCCCCCCCCCCCCCCC(=O)*; d(βAsp) = O=C(O)[C@@H](CC(=O)[*:2])N[*:1]; γGlu = O=C(O)[C@H](CCC(=O)[*:2])N[*:1]; 1Nal = N[C@@H](Cc1cccc2ccccc12)C(=O)O; C14 diacid = O=C(O)CCCCCCCCCCCCC(=O)*; Met(O2) = CS(=O)(=O)CC[C@H](N)C(=O)O; NMeF = CN[C@@H](Cc1ccccc1)C(=O)O; dNMeD = CN[C@H](CC(=O)O)C(=O)O; Nle = CCCC[C@H](N)C(=O)O; AEEA = NCCOCCOCC(=O)O

T1: human cholecystokinin-1 receptor (human, UniProt P32238 1-428)
T1 sequence (looked up): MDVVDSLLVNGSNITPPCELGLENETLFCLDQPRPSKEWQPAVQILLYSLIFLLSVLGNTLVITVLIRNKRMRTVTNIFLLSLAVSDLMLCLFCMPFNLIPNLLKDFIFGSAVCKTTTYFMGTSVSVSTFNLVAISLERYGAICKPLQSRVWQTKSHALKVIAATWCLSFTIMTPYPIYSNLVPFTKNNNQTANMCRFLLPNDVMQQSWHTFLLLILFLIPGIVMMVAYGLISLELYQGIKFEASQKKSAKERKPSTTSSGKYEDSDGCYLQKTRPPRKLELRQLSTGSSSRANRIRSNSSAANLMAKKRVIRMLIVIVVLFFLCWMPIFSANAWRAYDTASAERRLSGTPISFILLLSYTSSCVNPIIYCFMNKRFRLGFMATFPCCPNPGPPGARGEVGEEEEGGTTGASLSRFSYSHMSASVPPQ

T2: human cholecystokinin-2 receptor (human, UniProt P32239 1-447)
T2 sequence (looked up): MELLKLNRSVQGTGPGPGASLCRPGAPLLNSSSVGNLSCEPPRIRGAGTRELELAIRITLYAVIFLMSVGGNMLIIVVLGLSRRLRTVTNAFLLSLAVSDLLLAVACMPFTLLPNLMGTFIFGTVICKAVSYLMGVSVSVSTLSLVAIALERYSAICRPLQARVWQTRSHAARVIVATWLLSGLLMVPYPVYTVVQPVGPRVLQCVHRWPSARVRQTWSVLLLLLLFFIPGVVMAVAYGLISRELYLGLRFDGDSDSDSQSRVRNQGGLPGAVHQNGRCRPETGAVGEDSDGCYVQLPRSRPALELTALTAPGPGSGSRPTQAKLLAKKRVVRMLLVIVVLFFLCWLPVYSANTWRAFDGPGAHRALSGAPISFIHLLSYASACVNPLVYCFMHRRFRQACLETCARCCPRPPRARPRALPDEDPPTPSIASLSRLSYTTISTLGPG

T3: human cholecystokinin-1 receptor (CCK-1R) (Homo sapiens, UniProt P32238)
T3 construct: host or cells: 1321-N1 cells
T3 sequence (P32238 1-428): T1 sequence (looked up)

T4: human cholecystokinin-2 receptor (CCK-2R) (Homo sapiens, UniProt P32239)
T4 construct: host or cells: 1321-N1 cells (plasma membranes prepared by Evotec AG Hamburg)
T4 sequence (P32239 1-447): T2 sequence (looked up)

B1: 2-[2-[2-[[2-[2-[2-[[(4S)-4-Carboxy-4-(17-carboxyheptadecanoylamino)butanoyl]amino]ethoxy]ethoxy]acetyl]amino]ethoxy]ethoxy]acetyl-DbAsp-Phe(4-sulfomethyl)-Nle-G … (peptide)
peptide: {C18 diacid-γGlu-AEEA-AEEA}-[d(βAsp)][Phe(4-CH2SO3H)][Nle]GW[Nle][dNMeD][NMeF]-NH2
SMILES: CCCC[C@H](NC(=O)[C@H](Cc1ccc(CS(=O)(=O)O)cc1)NC(=O)C[C@@H](NC(=O)COCCOCCNC(=O)COCCOCCNC(=O)CC[C@H](NC(=O)CCCCCCCCCCCCCCCCC(=O)O)C(=O)O)C(=O)O)C(=O)NCC(=O)N[C@@H](Cc1c[nH]c2ccccc12)C(=O)N[C@@H](CCCC)C(=O)N(C)[C@H](CC(=O)O)C(=O)N(C)[C@@H](Cc1ccccc1)C(N)=O
B2: Asp-sTyr-Leu-Gly-Trp-Met(O2)-DMeAsp-MePhe-amide (peptide)
peptide: D[sY]LGW[Met(O2)][dNMeD][NMeF]-NH2
B3: 2-[2-[2-[[2-[2-[2-[[(4S)-4-Carboxy-4-(13-carboxytridecanoylamino)butanoyl]amino]ethoxy]ethoxy]acetyl]amino]ethoxy]ethoxy]acetyl-Glu-sTyr-Leu-Gly-Trp-Nle-DMeAsp- … (peptide)
peptide: {C14 diacid-γGlu-AEEA-AEEA}-E[sY]LGW[Nle][dNMeD][NMeF]-NH2
SMILES: CCCC[C@H](NC(=O)[C@H](Cc1c[nH]c2ccccc12)NC(=O)CNC(=O)[C@H](CC(C)C)NC(=O)[C@H](Cc1ccc(OS(=O)(=O)O)cc1)NC(=O)[C@H](CCC(=O)O)NC(=O)COCCOCCNC(=O)COCCOCCNC(=O)CC[C@H](NC(=O)CCCCCCCCCCCCC(=O)O)C(=O)O)C(=O)N(C)[C@H](CC(=O)O)C(=O)N(C)[C@@H](Cc1ccccc1)C(N)=O
notes: X = Nle or Nal
B4: 2-[2-[2-[[2-[2-[2-[[(4S)-4-Carboxy-4-(19-carboxynonadecanoylamino)butanoyl]amino]ethoxy]ethoxy]acetyl]amino]ethoxy]ethoxy]acetyl-Glu-sTyr-Leu-Gly-Trp-Nle-DMeAsp … (peptide)
peptide: {C20 diacid-γGlu-AEEA-AEEA}-E[sY]LGW[Nle][dNMeD][NMeF]-NH2
SMILES: CCCC[C@H](NC(=O)[C@H](Cc1c[nH]c2ccccc12)NC(=O)CNC(=O)[C@H](CC(C)C)NC(=O)[C@H](Cc1ccc(OS(=O)(=O)O)cc1)NC(=O)[C@H](CCC(=O)O)NC(=O)COCCOCCNC(=O)COCCOCCNC(=O)CC[C@H](NC(=O)CCCCCCCCCCCCCCCCCCC(=O)O)C(=O)O)C(=O)N(C)[C@H](CC(=O)O)C(=O)N(C)[C@@H](Cc1ccccc1)C(N)=O
notes: X = Nle or Nal

Columns and labels:
[1] = target: T1, human cholecystokinin-1 receptor; test: cell-based or functional assay
[2] = target: T2, human cholecystokinin-2 receptor; test: cell-based or functional assay
[3] = target: T3, human cholecystokinin-1 receptor (CCK-1R); test: In vitro potency on CCK-1R, whole cell functional assay (IP1 accumulation, IP-One HTRF); type: cell-based; conditions: for CCK-1R selectivity (EC50 (CCK-2R)/EC50 (CCK-1R)): ratio of functional EC50 values, >1 = preference for CCK-1R
[4] = target: T3, human cholecystokinin-1 receptor (CCK-1R); test: In vitro receptor binding to CCK-1R, SPA displacement of [125I]-CCK-8s from plasma membranes; conditions: for CCK-1R binding selectivity (IC50 (CCK-2R)/IC50 (CCK-1R)): ratio of binding IC50 values, >1 = preference for CCK-1R
[5] = target: T4, human cholecystokinin-2 receptor (CCK-2R); test: In vitro potency on CCK-2R, whole cell functional assay (IP1 accumulation, IP-One HTRF); type: cell-based
[6] = target: T4, human cholecystokinin-2 receptor (CCK-2R); test: In vitro receptor binding to CCK-2R, SPA displacement of [125I]-CCK-8s from plasma membranes
[7] = target: T2, human cholecystokinin-2 receptor; test: SPA competition vs [125I]-CCK-8s, membranes
Description: CCK receptor binding assays were performed in 96-well Optiplates (Cat #6005290, PerkinElmer, Waltham, Mass., USA) in a total volume of 200 μl per well.
The plates were sealed and incubated in the dark at +22° C. for 2 hours on a IKA MTS plate shaker (IKA-Werke D-79219 Staufen) set at 300 rpm and thereafter centrifuged at 1500 rpm for 10 minutes in a Heraeus Multifuge 3s centrifuge. SPA bead light emission was measured in a TopCount NXT (PerkinElmer) for 2 min/well after a delay of 60 min.

[8] = 1321-N1 cells stably expressing CCK-1R, IP1 accumulation, average of min. three replicates, read-out: EC50 (CCK-1R)
[9] = 1321-N1 cells stably expressing CCK-2R, IP1 accumulation, highest dose tested 1×10^6 pM, read-out: EC50 (CCK-2R)
[10] = displacement of [125I]-CCK-8s, plasma membranes of 1321-N1 cells expressing CCK-2R, highest dose tested 1×10^7 pM, read-out: IC50 (CCK-2R)
[11] = displacement of [125I]-CCK-8s, plasma membranes of 1321-N1 cells expressing CCK-1R, read-out: IC50 (CCK-1R)

Molecule	EC50 (CCK-1R) [1]	EC50 (CCK-2R) [2]	EC50 [3, 8]	CCK-1R binding selectivity (IC50 (CCK-2R)/IC50 (CCK-1R)) [4]	EC50 [5, 9]	IC50 [6, 10]	also measured
2-[2-[2-[[2-[2-[2-[[(4S)-4-Carboxy-4-(17-carboxyheptadecanoylamino)butanoyl]amino]ethoxy]ethoxy]acetyl]amino]ethoxy]ethoxy]acetyl-Asp-sTyr-Nle-Gly-Trp-Nle-DMeAsp-1Nal-amide (peptide)	0.37 nM	180 nM					
CC(C)C[C@H](NC(=O)[C@H](Cc1ccc(OS(=O)(=O)O)cc1)NC(=O)[C@H](CCC(=O)O)NC(=O)COCCOCCNC(=O)COCCOCCNC(=O)CC[C@H](NC(=O)CCCCCCCCCCCCCCCCC(=O)O)C(=O)O)C(=O)NCC(=O)N[C@@H](Cc1c[nH]c2ccccc12)C(=O)N[C@@H](CCC(N)=O)C(=O)N(C)[C@H](CC(=O)O)C(=O)N(C)[C@@H](Cc1ccccc1)C(N)=O [Example 42, 2-[2-[2-[[2-[2-[2-[[(4S)-4-Carboxy-4-(17-carboxyheptadecanoylamino)butanoyl]amino]ethoxy]ethoxy]acetyl]amino]ethoxy]ethoxy]acetyl-Glu-sTyr-Leu-Gly-Trp-Gln-DMeAsp-MePhe-amide]			0.22 nM	very selective	> 1000 nM	> 10000 nM	CCK-1R selectivity (EC50 (CCK-2R)/EC50 (CCK-1R)) [3]: very selective
CCCC[C@H](NC(=O)[C@H](Cc1ccc(OS(=O)(=O)O)cc1)NC(=O)[C@@H](N)CC(=O)O)C(=O)NCC(=O)N[C@@H](Cc1c[nH]c2ccccc12)C(=O)N[C@@H](CCCC)C(=O)N(C)[C@H](CC(=O)O)C(=O)N[C@@H](Cc1cccc2ccccc12)C(N)=O [Example 54, Asp-sTyr-Nle-Gly-Trp-Nle-DMeAsp-1Nal-amide] (H-D[sY][Nle]GW[Nle][dNMeD][1Nal]-NH2)			0.14 nM	84000	290 nM	2300 nM	CCK-1R selectivity (EC50 (CCK-2R)/EC50 (CCK-1R)) [3]: 2100; IC50 [4, 11]: 0.027 nM
CCCC[C@H](NC(=O)[C@H](Cc1c[nH]c2ccccc12)NC(=O)CNC(=O)[C@H](Cc1ccccc1)NC(=O)[C@H](Cc1ccc(OS(=O)(=O)O)cc1)NC(=O)[C@@H](N)CC(=O)O)C(=O)N(C)[C@H](CC(=O)O)C(=O)N(C)[C@@H](Cc1ccccc1)C(N)=O [Example 78, Asp-sTyr-Phe-Gly-Trp-Nle-DMeAsp-MePhe-amide] (H-D[sY]FGW[Nle][dNMeD][NMeF]-NH2)			0.22 nM	32000	> 1000 nM	920 nM	IC50 [4, 11]: 0.029 nM
CC(C)C[C@H](NC(=O)[C@H](Cc1ccc(OS(=O)(=O)O)cc1)NC(=O)[C@@H](N)CC(=O)O)C(=O)NCC(=O)N[C@@H](Cc1c[nH]c2ccccc12)C(=O)N[C@@H](C)C(=O)N(C)[C@H](CC(=O)O)C(=O)N(C)[C@@H](Cc1ccccc1)C(N)=O [Example 84, Asp-sTyr-Leu-Gly-Trp-Ala-DMeAsp-MePhe-amide] (H-D[sY]LGWA[dNMeD][NMeF]-NH2)							EC50 [3]: 0.22 nM; IC50 [4]: 0.53 nM; EC50 [5]: > 1000 nM; IC50 [6]: > 10000 nM
B1	0.43 nM						
B2	0.37 nM	> 1000 nM					
B3		150 nM					IC50 [7]: 1200 nM
B4		32 nM					IC50 [7]: 430 nM
